# Assay results as given in patent US9695155B2, “Herbicidal substituted pyrimidinyloxy benzene compounds” (E. I. DU PONT DE NEMOURS AND COMPANY, priority 2013, dated 2017).
# What was measured:
# Italian ryegrass [1] = assay: Test A preemergence; format: in vivo, Lolium multiflorum; details: for Plant response rating, Ryegrass, Italian: 0 to 100 scale where 0 is no effect and 100 is complete control
# Text: (§1) Seeds of plant species selected from barnyardgrass (Echinochloa crus-galli), kochia (Kochia scoparia), ragweed (common ragweed, Ambrosia elatior), Italian ryegrass (Lolium multiflorum), large (Lg) crabgrass (Digitaria sanguinalis), giant foxtail (Setaria faberii), morningglory (Ipomoea spp.), pigweed (Amaranthus retroflexus), velvetleaf (Abutilon theophrasti), wheat (Triticum aestivum), and corn (Zea mays) were planted into a blend of loam soil and sand and treated preemergence with a directed soil spray using test chemicals formulated in a non-phytotoxic solvent mixture which included a surfactant.
# (§2) At the same time, plants selected from these crop and weed species and also blackgrass (Alopecurus myosuroides), and galium (catchweed bedstraw, Galium aparine) were planted in pots containing the same blend of loam soil and sand and treated with postemergence applications of test chemicals formulated in the same manner. Plants ranged in height from 2 to 10 cm and were in the one- to two-leaf stage for the postemergence treatment. Treated plants and untreated controls were maintained in a greenhouse for approximately 10 days, after which time all treated plants were compared to untreated controls and visually evaluated for injury. Plant response ratings, summarized in Table A, are based on a 0 to 100 scale where 0 is no effect and 100 is complete control. A dash (-) response means no test result.
# galium = assay: Test A postemergence; format: in vivo, Galium aparine; details: for Plant response rating, Galium: 0 to 100 scale, 0 no effect, 100 complete control
# Method in brief: (§3)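 Visual injury scored 0–100 (100 = complete control) against untreated controls about 10 days after treatment in a greenhouse. Test chemicals, formulated with surfactant in non-phytotoxic solvent, were sprayed on soil preemergence or on 2-10 cm, one- to two-leaf plants postemergence.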
# barnyardgrass [2] = assay: Test A postemergence; format: in vivo, Echinochloa crus-galli; details: for Plant response rating, Barnyardgrass: 0 to 100 scale, 0 no effect, 100 complete control
# Method in brief: as §3
# sedge, umbrella = assay: Test B flooded paddy test; format: in vivo, Cyperus difformis; details: Flood, 250 g ai/ha; 0 to 100 scale where 0 is no effect and 100 is complete control
# Method in brief: (§4)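 Scores from 0 (no effect) to 100 (complete control) are visual comparisons with controls, taken 13 to 15 days after compound was applied into floodwater 3 cm deep around 2-leaf plants.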
# wheat = assay: Test A postemergence; format: in vivo, Triticum aestivum; details: for Plant response rating, Wheat: 0 to 100 scale, 0 no effect, 100 complete control
# Method in brief: as §3
# Italian ryegrass [3] = assay: Test A postemergence; format: in vivo, Lolium multiflorum; details: for Plant response rating, Ryegrass, Italian: 0 to 100 scale, 0 no effect, 100 complete control
# Text: as §1, §2
# rice = assay: Test B flooded paddy test; format: in vivo, Oryza sativa; details: Flood, 250 g ai/ha; 0 to 100 scale where 0 is no effect and 100 is complete control
# Method in brief: as §4
# pigweed [4] = assay: Test A postemergence; format: in vivo, Amaranthus retroflexus; details: for Plant response rating, Pigweed: 0 to 100 scale, 0 no effect, 100 complete control
# Method in brief: as §3
# ragweed [5] = assay: Test A preemergence; format: in vivo, Ambrosia elatior; details: for Plant response rating, Ragweed: 0 to 100 scale where 0 is no effect and 100 is complete control
# Text: as §1, §2
# giant foxtail [6] = assay: Test A preemergence; format: in vivo, Setaria faberii; details: for Plant response rating, Foxtail, Giant: 0 to 100 scale where 0 is no effect and 100 is complete control
# Method in brief: as §3
# Heteranthera limosa = assay: Test B flooded paddy test; format: in vivo; details: Flood, 250 g ai/ha; 0 to 100 scale where 0 is no effect and 100 is complete control
# Method in brief: as §4
# barnyardgrass [7] = assay: Test A preemergence; format: in vivo, Echinochloa crus-galli; details: for Plant response rating, Barnyardgrass: 0 to 100 scale where 0 is no effect and 100 is complete control
# Method in brief: as §3
# giant foxtail [8] = assay: Test A postemergence; format: in vivo, Setaria faberii; details: for Plant response rating, Foxtail, Giant: 0 to 100 scale, 0 no effect, 100 complete control
# Method in brief: as §3
# pigweed [9] = assay: Test A preemergence; format: in vivo, Amaranthus retroflexus; details: for Plant response rating, Pigweed: 0 to 100 scale where 0 is no effect and 100 is complete control
# Method in brief: as §3
# kochia [10] = assay: Test A postemergence; format: in vivo, Kochia scoparia; details: for Plant response rating, Kochia: 0 to 100 scale, 0 no effect, 100 complete control
# Text: as §1, §2
# kochia [11] = assay: Test A preemergence; format: in vivo, Kochia scoparia; details: for Plant response rating, Kochia: 0 to 100 scale where 0 is no effect and 100 is complete control
# Text: as §1, §2
# barnyardgrass [12] = assay: Test B flooded paddy test; format: in vivo, Echinochloa crus-galli; details: Flood, 250 g ai/ha; 0 to 100 scale where 0 is no effect and 100 is complete control
# Method in brief: as §4
# ragweed [13] = assay: Test A postemergence; format: in vivo, Ambrosia elatior; details: for Plant response rating, Ragweed: 0 to 100 scale, 0 no effect, 100 complete control
# Text: as §1, §2
# blackgrass = assay: Test A postemergence; format: in vivo, Alopecurus myosuroides; details: for Plant response rating, Blackgrass: 0 to 100 scale, 0 no effect, 100 complete control
# Text: as §1, §2
# corn = assay: Test A postemergence; format: in vivo, Zea mays; details: for Plant response rating, Corn: 0 to 100 scale, 0 no effect, 100 complete control
# Method in brief: as §3
# [14] = 31 g ai/ha, visual, approximately 10 days
# [15] = 125 g ai/ha, 0 to 100 scale where 0 is no effect and 100 is complete control
Structure (SMILES),"Plant response rating, Ryegrass, Italian (Italian ryegrass [1]; [14])","Plant response rating, Galium (galium; 31 g ai/ha)","Plant response rating, Barnyardgrass (barnyardgrass [2]; 31 g ai/ha)","Plant response rating, Sedge, Umbrella (sedge, umbrella)","Plant response rating, Wheat (wheat; 31 g ai/ha)","Plant response rating, Ryegrass, Italian (Italian ryegrass [3]; 31 g ai/ha)","Plant response rating, Rice (rice)","Plant response rating, Pigweed (pigweed [4]; 31 g ai/ha)","Plant response rating, Ragweed (ragweed [5]; [14])","Plant response rating, Foxtail, Giant (giant foxtail [6]; [14])","Plant response rating, Ducksalad (Heteranthera limosa)","Plant response rating, Barnyardgrass (barnyardgrass [7]; [14])","Plant response rating, Foxtail, Giant (giant foxtail [8]; 31 g ai/ha)","Plant response rating, Pigweed (pigweed [9]; [14])","Plant response rating, Kochia (kochia [10]; 31 g ai/ha)","Plant response rating, Kochia (kochia [11]; [14])","Plant response rating, Barnyardgrass (barnyardgrass [12])","Plant response rating, Ragweed (ragweed [13]; 31 g ai/ha)","Plant response rating, Blackgrass (blackgrass; 31 g ai/ha)","Plant response rating, Corn (corn; 31 g ai/ha)",other results
CC(C)Oc1cnn(-c2c(Br)cccc2Oc2ncc(Cl)cn2)c1 [Compound 148],0,20,0,30,0,0,0,50,0,10,40,0,10,0,0,0,0,10,0,0,"Plant response rating, Ryegrass, Italian (Italian ryegrass [1]; 125 g ai/ha): 0; Galium plant response rating (galium; [15]): 60; Barnyardgrass plant response rating (barnyardgrass [2]; [15]): 30; Wheat plant response rating (wheat; [15]): 0; Ryegrass, Italian plant response rating (Italian ryegrass [3]; [15]): 0; Pigweed plant response rating (pigweed [4]; [15]): 50; Plant response rating, Ragweed (ragweed [5]; 125 g ai/ha): 0; Plant response rating, Foxtail, Giant (giant foxtail [6]; 125 g ai/ha): 70; Plant response rating, Barnyardgrass (barnyardgrass [7]; 125 g ai/ha): 50; Foxtail, Giant plant response rating (giant foxtail [8]; [15]): 40; Plant response rating, Pigweed (pigweed [9]; 125 g ai/ha): 10; Kochia plant response rating (kochia [10]; [15]): 30; Plant response rating, Kochia (kochia [11]; 125 g ai/ha): 0; Ragweed plant response rating (ragweed [13]; [15]): 20; Blackgrass plant response rating (blackgrass; [15]): 10; Corn plant response rating (corn; [15]): 20"
N#Cc1cnn(-c2c(CF)cccc2Oc2ncc(Cl)cn2)c1 [Compound 242],0,10,0,75,0,0,0,30,50,100,70,20,0,90,30,30,20,20,30,0,"Ryegrass, Italian plant response rating (0 to 100 scale) (Italian ryegrass [1]; 125 g ai/ha): 0; Plant response rating, Galium (galium; 125 g ai/ha): 30; Plant response rating, Barnyardgrass (barnyardgrass [2]; 125 g ai/ha): 60; Plant response rating, Wheat (wheat; 125 g ai/ha): 60; Plant response rating, Ryegrass, Italian (Italian ryegrass [3]; 125 g ai/ha): 30; Plant response rating, Pigweed (pigweed [4]; 125 g ai/ha): 80; Ragweed plant response rating (0 to 100 scale) (ragweed [5]; 125 g ai/ha): 80; Foxtail, Giant plant response rating (0 to 100 scale) (giant foxtail [6]; 125 g ai/ha): 100; Barnyardgrass plant response rating (0 to 100 scale, 0 is no effect, 100 is complete control) (barnyardgrass [7]; 125 g ai/ha): 70; Plant response rating, Foxtail, Giant (giant foxtail [8]; 125 g ai/ha): 50; Pigweed plant response rating (0 to 100 scale) (pigweed [9]; 125 g ai/ha): 100; Plant response rating, Kochia (kochia [10]; 125 g ai/ha): 80; Kochia plant response rating (0 to 100 scale) (kochia [11]; 125 g ai/ha): 100; Plant response rating, Ragweed (ragweed [13]; 125 g ai/ha): 50; Plant response rating, Blackgrass (blackgrass; 125 g ai/ha): 90; Plant response rating, Corn (corn; 125 g ai/ha): 60"
